Results published in patent publication US11931347B2, “Method of screening for agents for differentiating stem cells” (MINERVA BIOTECHNOLOGIES CORPORATION, priority 2015, dated 2024).

Columns and labels:
[1] = system: T47D breast cancer cells; assay: cancer cell migration, invasion assay (Platypus/Oris system); type: cell-based, human; details: T47D; for IC50: Homo sapiens, curves calculated from 72 hour post dosing time point, read-out: IC50 of inhibition of cancer cell migration; for inhibition of cancer cell migration: 120 hours
Description: We then tested an expanded panel of agents, including agents known to inhibit cancer growth or migration (FIG. 17) (Horm et al., 2012; Meng & Yue, 2014; Zhen et al., 2014), which is characteristic of aggressive or metastatic cancers. We also synthesized a series of novel small molecules, tested them in the stem cell drug screening assay, and then synthesized analogs of the best hits. These small molecules are pictured in FIGS. 18-27. Both the known compounds and the novel compounds were tested in the stem cell drug screening assay. The effects of the small molecules on naïve versus primed state stem cells are shown in the photographs of FIGS. 29-72. The small molecules pictured in FIGS. 17-27 and the biologicals were also tested in a cancer cell migration assay. A structure activity relationship table is seen in FIG. 28. Potent cancer cell migration is characteristic of cancer cell invasion of other tissues and of metastasis. Typical migration assays involve coating a cell culture plate with fibronectin, collagen or the like, plating cancer cells and making a scar across through the cells and measuring the time it takes for the cancer cells to invade the void space. An alternative approach that gives more reliable data is the Platypus System which is a special multi-well cell culture plate with a juxtaposed set of plugs that block off a circle in the center of each well. Cancer cells are plated while the plugs are in place, then they are removed after the cells attach to the plate surface. […] A bar graph summarizing the results of the known anti-migration compounds compared to the anti-MUC1* Fab E6 and the first few small molecules synthesized is shown in FIG. 73. The effect of two novel small molecules MN1186 and MN1194, compared to the known anti-migration molecule SU11274, is shown in FIG. 75A-75U. FIG. 75V is a graph showing the measured inhibition of cancer cell migration at time 0, 24 hours or 48 hours for a number of compounds. […] FIG. 75X is a graph showing how IC50's of the small molecules of the invention were measured and calculated.
Percent inhibition of cancer cell migration was performed in a wound healing assay. The Percent area that the invading cancer cells occupied, in the presence of a drug candidate compared to the controls, was quantified by Image J cell software which enables cell counting from photographs. IC50's were calculated by performing migration experiments at several compound concentrations and then applying Hill's equation. Inhibition of cancer cell proliferation was quantified by automated cell counting in the presence or absence of a drug candidate. Here, the potency of the drug candidate was simply scored 4 for the highest degree of inhibition and 0 for the lowest. […] The effect of each drug candidate was scored 0-4, with 4 being the highest in inhibiting cell proliferation (FIG. 28).
For the cancer cell migration experiment cancer cells were plated at varying densities into an Oris Cell Migration Assay Collagen-1 coated 96-well plate (Platypus Technologies LLC, Madison, Wis.). The Collagen-1 coated 96-well plate incorporates a specific vacuum plug which attaches to the bottom of each well, creating an area in which the cells cannot grow into. Once the cells have been plated at high densities into each well, they are allotted an 18-24 hour time period to attach to the bottom of the wells. Post-24 hour plugs are removed from the plate and then small molecule analogs are added to the wells. Images are taken of each well and represent time 0 (T=0) for each well. Images are taken of the wells at the 24, 48, 72, 96 and 120 hour time points. Data analysis is conducted using the images taken at these specific time point. Images are imported into ImageJ (Rasband, W. S., ImageJ, U. S. National Institutes of Health, Bethesda, Md., USA, http://imagej.nih.gov/ij/, 1997-2016.) and the area remaining free of cells is calculated. […]

[2] = system: T47D breast cancer cells; assay: cancer cell proliferation assay (Calcein live cell stain); type: cell-based, human; details: for inhibition of cancer cell proliferation relative to parent compounds: T47D, Calcein assay after 120 hours, 40-2.5 uM
Description: These analogs of MN1194 and 1186 were also tested in a cell growth assay (FIGS. 107A1-107H6 and FIG. 108A1-108H6, respectively). In this experiment, both parent compound and analogs thereof were added to normal cell culture media to final concentrations of 40 uM, 20 uM, 10 uM, 5 uM or 2.5 uM. For comparison, previously known cancer cell migration inhibitors SU11274 and MN1204 were included in the same experiment. […] Relative cell proliferation is quantified on a standard plate reader that reads the fluorescence of the Calcein that is taken up by live cells.
Small molecule inhibition of cancer cell proliferation studies were also performed on several cancer sub-types. […] The small molecules of the invention had the most robust effect on T47D breast cancer cells, which are highly positive for MUC1* growth factor receptor, and its activating ligands NME7AB and NME7-X1.
(§1) For the cancer cell proliferation experiment cancer cells were plated at constant densities (6000 cells/well) into a 96-well White-walled/Clear-bottom Tissue Culture Treated plate (Corning Incorporated, Big Flats, N.Y.). Small molecule analogs are added at T=24 hours in media with 2% FBS. Following the addition of the small molecules, the cells remain untouched for 120 hours with visual confirmations/inspections at 24, 48, 72 and 96 hours post plating. At the 120 hour mark a calcein fluorescence assay (Thermo Fisher Scientific, Waltham, Mass.) is performed on the plate. Calcein fluorescence (final concentration 0.5 uM) is used to assess cell viability. Cancer cell fluorescence is measured in a TECAN SAFIRE^2 spectrophotometer plate reader. The plate is then imaged using an Olympus IX71 fluorescence imaging microscope and montage of the resulting images are assembled using ImageJ.

[3] = system: MDA-MB-453 breast cancer cells; assay: cancer cell proliferation assay (Calcein); type: cell-based; details: 96 hours (FIG. 110)
Description: as §1, with “Small molecule inhibition of cancer cell proliferation studies were also performed on several cancer sub-types. […] The small molecules of the invention had the most robust effect on T47D breast cancer cells, which are highly positive for MUC1* growth factor receptor, and its activating ligands NME7AB and NME7-X1. […] For” for “For”

[4] = system: DU145 MUC1* positive prostate cancer cells; assay: cancer cell proliferation assay (Calcein); type: cell-based; details: 96 hours (FIG. 109)
Description: as §1, with “Small molecule inhibition of cancer cell proliferation studies were also performed on several cancer sub-types. […] The small molecules of the invention had the most robust effect on T47D breast cancer cells, which are highly positive for MUC1* growth factor receptor, and its activating ligands NME7AB and NME7-X1. […] For” for “For”

[5] = system: PC-3 MUC1* negative, NME7AB positive prostate cancer cells; assay: cancer cell proliferation assay (Calcein); type: cell-based; details: 96 hours (FIG. 111)
Description: as §1, with “Small molecule inhibition of cancer cell proliferation studies were also performed on several cancer sub-types. […] The small molecules of the invention had the most robust effect on T47D breast cancer cells, which are highly positive for MUC1* growth factor receptor, and its activating ligands NME7AB and NME7-X1. […] For” for “For”

[6] = system: human naïve state stem cells; assay: stem cell drug screening assay on naïve state stem cells; type: cell-based; design: key to effect on naïve stem cells, score: “−” indicates that at 6 uM the drug candidate did not have an obvious effect on the pluripotency or proliferation of the stem cells; A “+” indicates a mild effect; a score of −, or +, ++, +++, or ++++ is given; a score of −, or +, ++, +++, or ++++ is given; “++++” indicates a profound effect on pluripotency or proliferation; details: 6 uM, 3 days, NME7AB absent
Description: (§2) The stem cell screening assay, was performed in both the presence and absence of the stem cell growth factors: NME7AB for growing naïve stem cells or FGF for growing primed stem cells. If the cognate growth factor was present, then the biological or small molecule would have to compete away the growth factor to get an effect. Therefore, we expected to see more of an effect when the growth factor, FGF for primed stem cells or NME7AB or NME1 dimers for naïve stem cells, was absent. The effect of the compounds on stem cells was visually determined and compounds were ranked 0-4, with 4 being the greatest effect and 0 being no observable effect. The major effect that was observed was a change from pluripotent stem cell morphology, which is a cobblestone pattern of small round cells with a large nucleus to cytoplasm ratio, to that of differentiating stem cells, which are elongated, large and flattened cells with a smaller nucleus to cytoplasm ratio. […] The compounds were added to a final concentration of 6 uM to either naïve state stem cells or primed state stem cells. In this particular case, the naïve state stem cells were maintained in a naïve state by culturing in a media containing NME7AB or NME1 dimers. However, other methods such as 2i and 5i (Silva et al., 2008, Nichols and Smith, 2009, Theunissen et al., 2014)] can be used to maintain stem cells in a more naïve state. In this case primed state stem cells were cultured in bFGF over a layer of MEFs, although it is known that any bFGF containing media will maintain stem cells in the primed state.
Stem cells whether embryonic or induced pluripotent stem (iPS) cells were cultured in a minimal, serum-free media that contained human recombinant NME7AB at a concentration of 2-32 nM wherein 4-8 nM is preferred and 4 nM is more preferred. To facilitate surface attachment, cell culture plates were coated with an anti-MUC1* monoclonal antibody called MN-C3 or C3 or MN-C8 at a concentration of 2-100 ug/mL coating solution, wherein 3-50 ug/mL is preferred and 6-12.5 ug/mL is more preferred. In these experiments, 12.5 ug/mL of MN-C3 was used. Antibody coated plates were incubated at 4 degrees C. overnight prior to plating stem cells. A Rho kinase I inhibitor was added to enhance surface attachment. In some cases, NME7AB was substituted with human recombinant NME1 dimers which also induce stem cells to revert to a naïve-like state.
(§3) Human naïve state and primed stem cells were cultured in parallel for at least 5 passages to guarantee normal differentiation-free growth. The stem cells were plated in 12-well cell culture plates with 50,000 cells per well. Cells were cultured in their respective media, either bFGF media or NME7AB media for 24 hours. Media was then removed and replaced with media devoid of bFGF or NME7AB, when indicated. Agents being tested for their ability to induce differentiation of naïve stem cells were added to the media at the concentrations indicated. After 72 hours, photographs were taken see FIGS. 1-10.
(§4) Human naïve state and primed stem cells were cultured in parallel for at least 5 passages to guarantee normal differentiation-free growth. The stem cells were plated in 12-well cell culture plates with 50,000 cells per well. Cells were cultured in their respective media, either bFGF media or NME7AB media for 24 hours. Media was then removed and replaced with media devoid of bFGF or NME7AB. […] Media was changed after 48 hours and replaced with fresh media containing the BRD4 inhibitors. After 4 days the experiment was stopped. Photographs were taken and cell pellets collected for further analysis, see FIGS. 11-16.

[7] = system: human primed state stem cells; assay: stem cell drug screening assay on primed state stem cells; type: cell-based; design: key to effect on primed state stem cells, score: “−” indicates that at 6 uM the drug candidate did not have an obvious effect on the pluripotency or proliferation of the stem cells; A “+” indicates a mild effect; a score of −, or +, ++, +++, or ++++ is given; a score of −, or +, ++, +++, or ++++ is given; “++++” indicates a profound effect on pluripotency or proliferation
Description: as §2
Stem cells whether embryonic or induced pluripotent stem (iPS) cells were cultured in a minimal, serum-free media that contained human recombinant bFGF at a concentration of 8 ng/mL. The stem cells were plated over a layer of inactivated mouse embryonic fibroblasts, aka MEFs, which secrete additional uncharacterized growth factors and cytokines.
as §3, §4

## CC(C)CC1c2[nH]c3ccc(F)cc3c2CCN1C(=O)C1CCC(CNC(=O)OC(C)(C)C)CC1 (stereo not drawn) [MN1266]
[1]
  IC50: 1290 nM

## CC(C)CC1c2[nH]c3ccccc3c2CCN1C(=O)C1CCC(CNC(=O)OC(C)(C)C)CC1 (stereo not drawn) [MN1246]
[2]; live cell Calcein stain, 96 hours (FIG. 113)
  inhibition of growth of T47D cells: severely inhibited growth
[3]
  inhibition of growth of MDA-MB-453 cells: inhibited the growth
[4]
  inhibition of growth of DU145 cells: inhibited the growth
[5]
  inhibition of growth of PC-3 cells: inhibited the growth

## CC(C)CC1c2[nH]c3cc(Cl)ccc3c2CCN1C(=O)CNC(=O)OC(C)(C)C (stereo not drawn) [MN1228]
[2]
  inhibition of cancer cell proliferation relative to parent compounds: inhibit cancer cell proliferation better than parent compounds
[1]
  inhibition of cancer cell migration: improvements over MN1186

## CC(C)CC1c2[nH]c3cc(F)ccc3c2CCN1C(=O)CCCCNC(=O)OC(C)(C)C (stereo not drawn) [MN1229]
[2]
  inhibition of cancer cell proliferation relative to parent compounds: inhibit cancer cell proliferation better than parent compounds
[1]
  inhibition of cancer cell migration: improvements over MN1186

## Cc1ccc2[nH]c3c(c2c1)CCN(C(=O)C1CCC(CNC(=O)OC(C)(C)C)CC1)C3CC(C)C (stereo not drawn) [MN1265]
[1]
  IC50: 770 nM

## CC(C)CC1c2[nH]c3ccccc3c2CCN1C(=O)CCCCCNC(=O)OC(C)(C)C (stereo not drawn) [MN1195]
[2]
  inhibition of cancer cell proliferation relative to parent compounds: inhibit cancer cell proliferation better than parent compounds
[1]
  inhibition of cancer cell migration: improvements over MN1186

## CC(C)CC1c2[nH]c3ccccc3c2CCN1C(=O)CCCCNC(=O)OC(C)(C)C (stereo not drawn) [MN1194]
[6]
  effect on naïve stem cells, score: ++++
[7]; 6 uM, 3 days
  effect on primed stem cell pluripotency, growth or differentiation (visually determined): barely affected
[1]
  inhibition of cancer cell migration: most potent inhibitors of cancer cell migration

## CC(C)CC1c2[nH]c3ccccc3c2CCN1C(=O)CNC(=O)OC(C)(C)C (stereo not drawn) [MN1186]
[6]
  effect on naïve stem cells, score: ++++
[7]; 6 uM, 3 days, FGF absent
  effect on primed state stem cells, score: ++
[1]
  inhibition of cancer cell migration: most potent inhibitors of cancer cell migration

## Cc1sc2c(c1C)C(c1ccc(Cl)cc1)=N[C@@H](CC(=O)OC(C)(C)C)c1nnc(C)n1-2 [JQ1(−), JQ1]
[7]; treated for 3 days, bFGF absent
  induction of differentiation of primed state stem cells: None of these agents appeared to induce differentiation

## CC(C)CC1c2[nH]c3ccccc3c2CCN1C(=O)CCCNC(=O)OC(C)(C)C (stereo not drawn) [MN1190]
[2]
  inhibition of cancer cell proliferation relative to parent compounds: inhibit cancer cell proliferation better than parent compounds
[1]
  inhibition of cancer cell migration: improvements over MN1186
